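In this assay, cells in 96-well plates receive the compound at five concentrations for 48 hours. Endpoints are linearly interpolated between the surrounding concentrations. The concentration for full growth arrest is given as TGI.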
Tests used:
Assay in all cases: NCI-60 cell line screen, 48 h
[1] = tested on: OVCAR-8 ovarian
[2] = tested on: IGROV1 ovarian
[3] = tested on: SK-OV-3 ovarian
[4] = tested on: KM12 colon
[5] = tested on: UACC-62 melanoma
[6] = tested on: LOX IMVI melanoma
[7] = tested on: U251 CNS
[8] = tested on: UACC-257 melanoma
[9] = tested on: HL-60(TB) leukemia
[10] = tested on: COLO 205 colon
[11] = tested on: NCI-H226 lung
[12] = tested on: T-47D breast
[13] = tested on: SNB-75 CNS
[14] = tested on: HOP-92 NSCLC
[15] = tested on: HCT-116 colon
[16] = tested on: SF-539 CNS
[17] = tested on: A549 NSCLC
[18] = tested on: MOLT-4 leukemia
[19] = tested on: CCRF-CEM leukemia

SMILES | TGI [1] [µM] | TGI [2] [µM] | TGI [3] [µM] | TGI [4] [µM] | TGI [5] [µM] | TGI [6] [µM] | TGI [7] [µM] | TGI [8] [µM] | TGI [9] [µM] | TGI [10] [µM] | TGI [11] [µM] | TGI [12] [µM] | TGI [13] [µM] | TGI [14] [µM] | TGI [15] [µM] | TGI [16] [µM] | TGI [17] [µM] | TGI [18] [µM] | TGI [19] [µM]
Cc1ccc2c(c1)C(=O)/C(=N/Nc1ccc(Cl)cc1)CCO2 | > 100 | > 100 | > 100 | > 100 | > 100 | > 100 | > 100 | > 100 | > 100 | > 100 | > 100 | > 100 | > 100 | > 100 | > 100 | > 100 | > 100 | > 100 | > 100
COC(=O)C(Cc1c[nH]c2ccccc12)N=C1Nc2ccncc2S(=O)(=O)N1c1ccccc1 (stereo not drawn) | > 100 | 98.7 | > 100 | > 100 | 58.2 | 69.3 | > 100 | > 100 | 0.727 | 33.9 | 61.4 | 51 | 75 | 54.8 | > 100 | 35 | > 100 | 35.1 | 32.2
CC(=O)C(=[N+]=[N-])C(=O)NCC#N | > 10 | > 10 | > 10 | > 10 | > 10 | > 10 | > 10 | > 10 | > 10 | > 10 | > 10 | > 10 | > 10 | > 10 | > 10 | > 10 | > 10 | > 10 | > 10
O=C1C(=O)c2c(oc(=O)c3ccccc23)-c2ccccc21 | > 25 | > 25 | > 25 | > 25 | > 25 | > 25 | > 25 | > 25 | 15 | > 25 | > 25 | > 25 | > 25 | > 25 | > 25 | > 25 | > 25 | > 25 | > 25
C=C(Cl)c1c(OC)cccc1OCc1ccccc1 | > 100 | > 100 | > 100 | > 100 | > 100 | > 100 | > 100 | 40.6 | > 100 | > 100 | > 100 | 95.7 | > 100 | 78.9 | > 100 | > 100 | > 100 | > 100 | > 100
CCOC(=O)C1=CN/C(=C(/C)C(=O)OC)SC1C(=O)OCC (stereo not drawn) | > 100 | > 100 | > 100 | > 100 | > 100 | > 100 | > 100 | > 100 | > 100 | > 100 | > 100 | > 100 | > 100 | > 100 | > 100 | > 100 | > 100 | > 100 | > 100
O=C(N/N=C/c1ccc2c(c1)OCO2)Nc1ccccc1Cl | > 43.1 | > 35.3 | > 24.9 | > 100 | > 83.1 | > 100 | > 100 | > 100 | > 23.1 | 5.52 | > 73.5 | > 38.3 | 2.38 | > 40 | > 100 | 24.8 | > 100 | > 100 | > 100
COC(=O)C1=C(O)C(C(=O)OC)[C@]2(O)[C@H](C(=O)OC)[C@H]1C[C@@H](c1ccc(F)cc1)[C@H]2C(=O)OC (stereo partly drawn) | 86.8 | 59.8 | 77.6 | 47.9 | 33.7 | 42.1 | 31.9 | 41.9 | 7.24 | 29.6 | 49.9 | > 100 | 73.2 | > 100 | 20.3 | 41 | > 100 | > 100 | 70.7
O=C(c1ccccc1)c1ccc2nc3n(c2c1)C(c1c(F)cccc1F)SC3 (stereo not drawn) | 98.4 | > 100 | 26.7 | 14.3 | 21.3 | 36.6 | > 63.4 | 91.1 | > 100 | 21.7 | > 79.2 | 33 | 29.4 | > 100 | 13.5 | > 47.8 | > 84.8 | 27.6 | 37.6
CCOC(=O)NNC(=O)C1CSC(c2ccccc2)N1C(C)=O (stereo not drawn) | > 100 | > 100 | > 100 | > 100 | > 100 | > 100 | > 100 | > 100 | > 100 | > 100 | > 100 | > 100 | > 100 | > 100 | > 100 | > 100 | > 100 | > 100 | > 100
Nc1nc(N)c2cc(Sc3ccc4nc(N)nc(N)c4c3)ccc2n1 | > 100 | > 100 | > 100 | > 100 |  | > 100 | > 100 | > 100 | > 100 | > 100 | > 100 | > 100 | > 100 | > 100 | > 100 | > 100 | > 100 | > 100 | 0.0104
CC12CCC3[C@@H](CC3(C)C)C(O)(CCC1=O)C2 (stereo partly drawn) | > 100 | > 100 | > 100 | > 100 | > 100 | > 100 | > 100 | > 100 | > 100 | > 100 | > 100 | > 100 | > 100 | > 100 | > 100 | > 100 | > 100 | > 100 | > 100
COCC(N=CN1CCCc2ccccc2[C@@H]1CCCCl)C(C)(C)C (stereo partly drawn) | 40.7 | 14.2 | 70.1 | 20.3 | 32.1 | 24.2 | 34.8 | 7.68 | 8.97 | 10.3 | 23.9 | 84.1 | 11.8 | 30 | 9.48 | 24.4 | 66.3 | 15.5 | > 100
COc1cc(OCc2nc3ccccc3n3cccc23)cc(OC)c1OC | > 100 | > 100 | > 100 | > 50.6 | > 72.3 | > 100 | > 100 | > 60.9 | 48.2 | > 82.3 | 52.4 | > 100 | > 100 | > 100 | > 60.5 | > 100 | > 100 | 14.3 | 25.4
Cc1cc([C@H](C#N)c2nc3ccccc3[nH]2)nc(Cl)n1 | > 100 | > 100 | > 100 | 28.1 | 65.3 | > 100 | > 100 | 71.4 | > 100 | > 100 | > 100 | 89.5 | 93.4 | > 100 | > 100 | > 100 | > 100 | > 100 | > 100
CN1CCC2(CC1)SC[C@H]1C(=O)N(c3ccc(Cl)cc3)C(=O)N12 | > 100 | > 100 | > 100 | > 100 | > 100 | > 100 | > 100 | > 100 | > 100 | > 100 | > 100 | > 100 | > 100 | > 100 | > 100 | > 100 | > 100 | > 100 | > 100
CC[C@](O)(CC(=O)O[C@H]1C(=O)O[C@@H]2C[C@H]3C(C)=CC(=O)[C@@H](O)[C@]3(C)[C@H]3[C@@]4(O)OC[C@]32[C@@H]1[C@@H](C)[C@H]4O)C(C)C | < 0.01 | < 0.01 | < 0.01 | < 0.01 | < 0.01 | < 0.01 | < 0.01 | < 0.01 | < 0.01 | < 0.01 | < 0.01 | < 0.01 | < 0.01 | < 0.01 | < 0.01 | < 0.01 |  | < 0.01 | < 0.01
CSc1nc(C)c2c(n1)SCC2 | > 10 | > 10 | > 10 | > 10 | > 10 | > 10 | > 10 | > 10 | > 10 | > 10 | > 10 | > 10 | > 10 | > 10 | > 10 | > 10 | > 10 | > 10 | > 10
CCN(CC)c1cc2c3c(c1)CCCN3CCC2 | > 10 | > 10 | > 10 | > 10 | > 10 | > 10 | > 10 | > 10 | > 10 | > 10 | > 10 | > 10 | > 10 | > 10 | > 10 | > 10 | > 10 | > 10 | > 10
Cc1cc(C)nc(NS(=O)(=O)c2ccc(NNc3c4ccccc4nc4c(C(=O)Nc5ccc(S(=O)(=O)Nc6ncccn6)cc5)cccc34)cc2)n1 | > 100 | > 100 | 89.9 | > 100 | 83.7 | 45.1 | 56 | 94.3 | 62.9 | 54.3 | 53.2 | 74.3 | 73.9 | 66.5 | 39.2 | 69.4 | > 100 | 92.9 | 59.9
CN1C2CCC1CC(CCOC(c1ccc(F)cc1)c1ccc(F)cc1)C2 (stereo not drawn) | 32.1 | 32.1 | 31.2 | 30.8 |  | 30.3 | 28.1 | 34.1 | 34.9 | 24.1 | 29.1 | 39.2 | 30.4 | 34.3 | 27.4 | 29.9 | 35.7 | 44 | 46.1
Cc1c(C)c2c(c(N)c1C#N)C(=O)N(CCc1ccccc1)C2=O | > 100 | > 100 |  | > 100 | > 100 | > 100 | > 100 | > 100 | > 100 | > 100 | > 100 | > 100 | > 100 | > 100 | > 100 | > 100 | > 100 | > 100 | > 100
COC(=O)c1c(O)ccc2c1c1c(n2Cc2ccccc2)C(=O)c2ccccc2C1=O | 26.2 | 25.8 | 30.1 | 29.7 |  | 41.6 | 29.2 | 32.8 | 47.2 | 3.32 | 39.6 | 42.1 | 29.1 | 27.1 | 27.8 | 29.1 | 22.6 | 25.3 | 46.8
O=C(c1cc(Cl)cc(Cl)c1)N(C(=O)N1CCN(c2ccccc2)CC1)c1ccccc1 | > 100 |  | > 100 | > 100 | > 100 | > 100 | > 100 | > 100 | > 100 | 39.6 | > 100 | > 100 | > 100 | > 100 | > 100 | > 100 | > 100 | > 100 | > 100
CN(C)C=Nc1cccc2nsnc12 | > 100 | > 100 | > 100 |  | > 100 | > 100 | > 100 | > 100 | > 100 | > 100 | > 100 | > 100 | > 100 | > 100 | > 100 | > 100 | > 100 | > 100 | > 100
